From the supplement of paper PMC10307832

What was measured:
Assay in all cases: relative viability (nuclei count vs DMSO), 5 days (fraction); higher = more cells survive
[1] = compound: Nc1ccccc1NC(=O)c1ccc(CNC(=O)OCc2cccnc2)cc1 [Entinostat] + CC(=O)Nc1cccc(-n2c(=O)n(C3CC3)c(=O)c3c(Nc4ccc(I)cc4F)n(C)c(=O)c(C)c32)c1 [Trametinib] (partner 0.02 µM)
In short: (§1)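 Lung cancer cell lines were pin-tool dosed in 1536-well plates on the day after seeding, with either a lone drug or a fixed anchor-drug dose plus five library-drug doses (not always all listed) in √10 steps. Nuclei were counted on 4× images after 5 days. Relative viability is the ratio of treated-well to vehicle-well nuclei counts, with each value a median of duplicate plates.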

[2] = compound: C1COCCN1C2=NC(=NC3=C2OC4=C3C=CC=N4)C5=CC(=CC=C5)NC(=O)C6=CN=C(C=C6)N + Nc1ncn([C@H]2C[C@H](O)[C@@H](CO)O2)c(=O)n1 [Decitabine] (partner 2 µM)
In short: as §1

[3] = compound: CN1CCC(CNc2ccc3ncc(-c4cccc(OC(F)(F)F)c4)n3n2)CC1 [SGI-1776] + Cc1nc(Nc2ncc(C(=O)Nc3c(C)cccc3Cl)s2)cc(N2CCN(CCO)CC2)n1 [Dasatinib] (partner 0.075 µM)
In short: as §1

[4] = compound: Nc1ccccc1NC(=O)c1ccc(CNC(=O)OCc2cccnc2)cc1 [Entinostat] + CC(C)C[C@H](NC(=O)[C@H](Cc1ccccc1)NC(=O)c1cnccn1)B(O)O [Bortezomib] (partner 0.002 µM)
In short: as §1

Cell Line	relative viability ([1]; first compound 0.02 µM)	relative viability ([1]; first compound 0.06325 µM)	relative viability ([1]; first compound 0.2 µM)	relative viability ([1]; first compound 0.6325 µM)	relative viability ([1]; first compound 2 µM)	relative viability ([2]; first compound 0.02 µM)	relative viability ([2]; first compound 0.06325 µM)	relative viability ([2]; first compound 0.2 µM)	relative viability ([2]; first compound 0.6325 µM)	relative viability ([2]; first compound 2 µM)	relative viability ([3]; first compound 0.08 µM)	relative viability ([3]; first compound 0.8 µM)	relative viability ([3]; first compound 2.53 µM)	relative viability ([3]; first compound 8 µM)	relative viability ([4]; first compound 0.02 µM)	relative viability ([4]; first compound 0.06325 µM)	relative viability ([4]; first compound 0.2 µM)	relative viability ([4]; first compound 0.6325 µM)	relative viability ([4]; first compound 2 µM)
SK-LU-1	0.445	0.617	0.463	0.361	0.402	0.595	0.715	0.609	0.616	0.46	0.171	0.183	0.169	0.116	1.34	1.4	0.988	0.537	0.305
NCI-H838	0.531	0.548	0.626	0.395	0.167	0.437	0.437	0.413	0.5	0.371	0.282	0.275	0.256	0.257	0.959	1.21	0.947	0.634	0.385
LOU-NH91	0.777	0.771	0.804	0.739	0.674	0.792	0.843	0.822	0.794	0.746	0.571	0.597	0.555	0.43	0.496	0.52	0.534	0.545	0.512
BEN	1.18	1.04	0.79	0.63	0.441	0.75	0.762	0.697	0.752	0.637	0.399	0.313	0.285	0.302	0.96	0.797	0.741	0.577	0.247
NCI-H2085	0.552	0.765	0.508	0.499	0.408	0.486	0.626	0.57	0.649	0.559	0.248	0.264	0.243	0.201	1.03	1.12	1.04	0.683	0.604
LCLC-103H	0.718	0.605	0.713	0.588	0.561	0.724	0.723	0.731	0.733	0.527	0.527	0.479	0.535	0.432	1.05	1.04	1.11	0.868	0.498
NCI-H650	1.06	1	0.917	0.708	0.487	0.315	0.361	0.333	0.443	0.494	0.492	0.497	0.434	0.37	1.02	0.916	0.773	0.426	0.171
NCI-H1792	0.479	0.431	0.366	0.442	0.155	0.688	0.66	0.519	0.531	0.213	0.781	0.742	0.637	0.491	0.952	0.992	1.03	0.802	0.606
EPLC-272H	0.351	0.342	0.319	0.27	0.182	0.329	–	0.386	0.382	0.376	0.381	0.365	0.264	0.314	0.889	0.848	0.879	0.299	0.204
EKVX	0.364	0.344	0.261	0.252	0.227	0.335	0.321	0.325	0.383	0.567	0.475	0.547	0.599	0.413	1.1	0.992	0.999	0.853	0.445
NCI-H1666	0.817	0.883	0.763	0.611	0.572	0.815	0.752	0.692	0.715	0.623	0.822	0.791	0.75	0.711	0.855	0.694	0.741	0.441	0.321
HCC-15	0.392	0.323	0.245	0.221	0.161	0.606	0.646	0.608	0.691	0.429	0.577	0.551	0.466	0.382	1.02	0.945	0.876	0.403	0.413
LCLC-97TM1	0.233	0.207	0.214	0.152	0.139	0.286	0.236	0.241	0.333	0.236	0.783	0.938	0.85	0.949	0.69	0.912	0.912	0.355	0.128
NCI-H2347	0.254	0.273	0.218	0.205	0.222	0.603	0.657	0.651	0.755	0.575	0.346	0.319	0.306	0.265	0.969	1.01	0.557	0.318	0.262
NCI-H1915	0.314	0.311	0.289	0.246	0.229	0.255	0.261	0.26	0.559	0.335	0.315	0.273	0.29	0.261	1.05	0.959	0.998	0.644	0.638
NCI-H647	0.48	0.398	0.525	0.322	0.133	0.524	0.478	0.527	0.519	0.325	0.188	0.184	0.111	0.117	1.02	1.01	0.869	0.216	0.0717
NCI-H1650	0.594	0.585	0.507	0.372	0.376	0.415	0.401	0.58	0.661	0.461	0.372	0.292	0.208	0.171	0.194	0.226	0.2	0.214	0.214

Cell Line	relative viability ([1]; first compound 0.02 µM)	relative viability ([1]; first compound 0.06325 µM)	relative viability ([1]; first compound 0.2 µM)	relative viability ([1]; first compound 0.6325 µM)	relative viability ([1]; first compound 2 µM)	relative viability ([2]; first compound 0.02 µM)	relative viability ([2]; first compound 0.06325 µM)	relative viability ([2]; first compound 0.2 µM)	relative viability ([2]; first compound 0.6325 µM)	relative viability ([2]; first compound 2 µM)	relative viability ([3]; first compound 0.08 µM)	relative viability ([3]; first compound 0.8 µM)	relative viability ([3]; first compound 2.53 µM)	relative viability ([3]; first compound 8 µM)	relative viability ([4]; first compound 0.02 µM)	relative viability ([4]; first compound 0.06325 µM)	relative viability ([4]; first compound 0.2 µM)	relative viability ([4]; first compound 0.6325 µM)	relative viability ([4]; first compound 2 µM)
NCI-H520	0.698	0.906	0.604	0.698	0.355	0.47	0.521	0.588	0.55	0.44	0.279	0.221	0.153	0.131	0.602	0.667	0.558	0.195	0.161
HCC-366	0.42	0.306	0.253	0.218	0.0673	0.296	0.395	0.343	0.373	0.223	0.595	0.669	0.517	0.524	1.08	1.15	0.831	0.41	0.0738
NCI-H2087	0.189	0.193	0.169	0.136	0.141	0.267	0.281	0.255	0.332	0.211	0.782	1.09	0.826	0.595	0.883	0.837	0.761	0.425	0.274
PC-3 [JPC-3]	0.726	0.642	0.579	0.51	0.502	0.846	0.8	–	0.843	0.755	1.1	0.961	0.977	0.857	0.853	0.814	0.824	0.409	0.508
HOP-62	0.412	0.435	0.392	0.351	0.18	0.193	0.227	0.243	0.313	0.412	0.724	0.679	0.531	0.597	0.804	0.591	0.763	0.398	0.17
NCI-H2126	0.592	0.506	0.525	0.347	0.312	0.54	0.608	0.606	0.613	0.503	0.642	0.635	0.481	0.434	1.13	1.11	1.1	0.885	0.809
RERF-LC-KJ	0.915	0.833	0.726	0.418	0.323	0.71	0.826	0.617	0.758	0.585	0.803	0.688	0.7	0.447	1.06	1.21	0.998	0.643	0.417
H3255	0.681	0.57	0.528	0.402	0.295	0.577	0.575	0.599	0.798	0.559	0.4	0.371	0.378	0.277	0.797	0.844	0.577	0.401	0.28
EMC-BAC-2	0.868	0.713	0.578	0.489	0.383	0.96	1.06	0.947	0.953	0.779	0.361	0.284	0.314	0.288	1.11	1.16	1.1	0.898	0.516
NCI-H661	0.62	0.605	0.715	0.536	0.363	0.593	0.578	0.603	0.63	0.444	1	0.979	0.837	0.692	0.956	0.883	0.861	0.781	0.7
NCI-H1437	0.406	0.31	0.276	0.276	0.221	0.574	0.646	0.615	0.696	0.458	0.335	0.427	0.298	0.242	0.438	0.323	0.239	0.168	0.126
PC-14	0.653	0.61	0.502	0.145	0.0754	0.182	0.26	0.226	0.295	0.173	0.267	0.256	0.0958	0.0261	0.833	0.949	0.909	0.331	0.128
NCI-H1651	0.931	0.844	0.844	0.745	0.606	0.65	0.643	0.614	0.66	0.568	0.535	0.378	0.381	0.312	0.958	0.923	0.921	0.926	0.84
LC-2-ad	0.894	0.883	0.83	0.698	0.479	0.881	0.788	0.92	0.835	0.618	0.726	0.521	0.397	0.402	0.961	0.895	0.818	0.591	0.197
NCI-H1734	0.707	0.711	0.759	0.6	0.477	0.534	0.575	0.482	0.537	0.484	0.55	0.426	0.441	0.434	0.895	1.1	1.06	0.753	0.472
NCI-H441	0.498	0.687	0.568	0.227	0.147	0.23	0.298	0.27	0.326	0.248	0.633	0.625	0.539	0.55	0.443	0.598	0.409	0.181	0.118
NCI-H727	0.368	0.365	0.347	0.331	0.273	0.884	0.851	0.785	1	0.862	0.4	0.426	0.351	0.356	0.714	0.965	0.754	0.574	0.329
